From patent publication US11479802B2, “Assays for screening activity of modulators of members of the hydroxy steroid (17-beta) dehydrogenase (HSD17B) family” (Regeneron Pharmaceuticals, Inc., priority 2017, dated 2022)
Counter-ions that a name gives are not always drawn.

Target: T1, human HSD17B13 (Homo sapiens, UniProt Q7Z5P4)
T1 sequence (Q7Z5P4 20-300): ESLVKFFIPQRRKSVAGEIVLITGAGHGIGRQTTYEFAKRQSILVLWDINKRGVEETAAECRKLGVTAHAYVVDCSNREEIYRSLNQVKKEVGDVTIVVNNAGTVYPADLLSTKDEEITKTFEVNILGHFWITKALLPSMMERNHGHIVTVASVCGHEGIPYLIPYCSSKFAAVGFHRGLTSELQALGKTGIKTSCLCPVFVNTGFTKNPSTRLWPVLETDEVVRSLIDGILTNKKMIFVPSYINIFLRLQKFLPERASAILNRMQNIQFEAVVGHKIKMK
Assay: Substrate screening of steroid and bioactive lipid libraries against purified recombinant HSD17B13 (NADH-linked luciferase assay)
Assay type: biochemical
Conditions: for HSD17B13 Enzymatic Activity Relative Light Units: 500 μM NAD+, 100 ng enzyme, 3 hours at 23° C.; for HSD17B13 Enzymatic Activity Percent Estradiol Control: normalized to 50 μM estradiol after subtraction of 5% DMSO
Experimental: To understand the functional consequences of premature truncation of the HSD17B13 protein due to rs72613567:TA (the associated variant, rs72613567, is an insertion of an adenine adjacent to the donor splice site of exon six (TA allele)), the enzymatic activity of isoforms A and D was evaluated in vitro using recombinant protein and nicotinamide […] dinucleotide as cofactor. Reactions were performed in a final volume of 40 μl of assay buffer (0.2 M Tris-HCl, pH 7.5) which contained 500 μM NAD^+, 5 μM bioactive lipid or 50 μM steroid (all in a final concentration of 5% DMSO), and 100 ng of recombinant human HSD17B13. Reactions were incubated for 3 hours, at 23° C., after which an equal volume detection reagent was added. Following a 1 hour incubation at 23° C., the relative light units (RLUs) were measured on an Envision Plate Reader (Perkin Elmer). Raw RLU values were normalized as percent of control (50 μM estradiol) following subtraction of negative control (5% DMSO) using the following formula: Percent of control (POC)=100×(Sample (RLU)−Negative CTRLaverage)/(Positive CTRLaverage−Negative CTRLaverage).

[1] = Bioactive Lipid Library, 5 μM bioactive lipid (Estradiol Control 50 μM)
[2] = Bioactive Lipid Library, 5 μM bioactive lipid

Row | SMILES | HSD17B13 Enzymatic Activity Relative Light Units [1] | HSD17B13 Enzymatic Activity Percent Estradiol Control [2] | HSD17B13 Enzymatic Activity Relative Light Units (Steroid Library, 50 μM steroid) | HSD17B13 Enzymatic Activity Percent Estradiol Control (Steroid Library, 50 μM steroid)
1 | CCCCC[C@H](O)/C=C/C=C\C/C=C\C/C=C\CCCC(=O)O (racemic) [(±)15-HETE] | 47880 RLU | 30.81% |  | 
2 | CC/C=C\C[C@H]1O[C@H]1C/C=C\C/C=C\C/C=C\C/C=C\CCC(=O)O (racemic) [(±)16(17)-EpDPA] | 274120 RLU | −0.71% |  | 
3 | CCC(O)C(O)C/C=C\C/C=C\C/C=C\C/C=C\CCCC(=O)O (racemic) [(±)17(18)-DiHETE] | 369120 RLU | 3.33% |  | 
4 | CCC1OC1C/C=C\C/C=C\C/C=C\C/C=C\CCCC(=O)O (racemic) [(±)17(18)-EpETE] | 316240 RLU | 2.19% |  | 
5 | CC/C=C\CC(O)/C=C/C=C\C/C=C\C/C=C\C/C=C\CCC(=O)O (racemic) [(±)17-HDHA] | 492440 RLU | 15.29% |  | 
6 | CCC(O)C(O)C/C=C\C/C=C\C/C=C\C/C=C\C/C=C\CCC(=O)O (racemic) [(±)19(20)-DiHDPA] | 827600 RLU | 37.95% |  | 
7 | CC[C@H]1O[C@H]1C/C=C\C/C=C\C/C=C\C/C=C\C/C=C\CCC(=O)O (racemic) [(±)19(20)-EpDPA] | 300600 RLU | 1.38% |  | 
8 | CCC(O)/C=C/C=C\C/C=C\C/C=C\C/C=C\C/C=C\CCC(=O)O (racemic) [(±)20-HDHA] | 1400640 RLU | 82.82% |  | 
9 | CC(C)OC(=O)CCC/C=C/C[C@@H]1[C@@H](/C=C/[C@@H](O)COc2cccc(C(F)(F)F)c2)[C@H](O)C[C@@H]1O (relative stereo) [5-trans Fluprostenol isopropyl ester] | 551400 RLU | 21.21% |  | 
10 | CCCCC/C=C\C[C@@H](O)/C=C/C=C/C=C/[C@@H](O)CCCC(=O)O (relative stereo) [6-trans Leukotriene B4] | 1209480 RLU | 68.61% |  | 
11 | CC/C=C/C[C@H](O)/C=C/[C@@H]1[C@@H](C/C=C\CCCC(=O)O)[C@@H](O)C[C@H]1O (relative stereo) [17-trans Prostaglandin F3α] | 371720 RLU | 7.01% |  | 
12 | CCCCC[C@H](O)/C=C/[C@H]1[C@H](O)CC(=O)[C@@H]1CCCCC(=O)O [2,3-dinor Prostaglandin E1] | 344240 RLU | 4.83% |  | 
13 | CCCCC[C@H](O)/C=C/[C@H]1OC(O)C[C@H](O)[C@@H]1CCCCC(=O)O (stereo partly shown) [2,3-dinor Thromboxane B1] | 364840 RLU | 3.01% |  | 
14 | CCCCC[C@H](O)/C=C/[C@@H]1[C@@H](CC(=O)CCC(=O)O)[C@@H](O)C[C@H]1O [2,3-dinor-6-keto Prostaglandin F1α (sodium salt)] | 341800 RLU | 4.64% |  | 
15 | CCCCC[C@H](O)/C=C/[C@@H]1[C@H](C/C=C\CC(=O)O)[C@@H](O)C[C@H]1O [2,3-dinor-8-iso Prostaglandin F2α] | 230040 RLU | −4.19% |  | 
16 | CCCCC[C@H](O)/C=C/[C@@H]1[C@@H](C/C=C\CC(=O)O)[C@@H](O)C[C@@H]1O [2,3-dinor-11β-Prostaglandin F2α] | 265000 RLU | −1.43% |  | 
17 | C[C@]12CC[C@H]3[C@@H]([C@H]4C[C@H]4[C@]4(O)C[C@@H](O)CC[C@]34C)[C@@H]1[C@@H]1C[C@@H]1C2=O [3b,5-Dihydroxy-6b,7b:15b,16b-dimethylene-5b-androstan17-one] |  |  | 183120 RLU | 0.39%
18 | CC/C=C\C/C=C\C/C=C\C/C=C\CC1OC1CCCC(=O)OC (stereo not shown) [5(6)-EpETE methyl ester] | 337400 RLU | 0.93% |  | 
19 | CCCCC/C=C\C\C=C/C=C/C=C/[C@@H](O)[C@@H](O)CCCC(=O)O [5(S),6(R)-DiHETE] | 166040 RLU | 1.66% |  | 

Row | SMILES | HSD17B13 Enzymatic Activity Relative Light Units [1] | HSD17B13 Enzymatic Activity Percent Estradiol Control [2] | HSD17B13 Enzymatic Activity Relative Light Units (Steroid Library, 50 μM steroid) | HSD17B13 Enzymatic Activity Percent Estradiol Control (Steroid Library, 50 μM steroid)
20 | CCCCC/C=C\C\C=C/C=C/C=C/[C@H](O)[C@@H](O)CCCC(=O)O [5(S),6(S)-DiHETE] | 309080 RLU | 4.07% |  | 
21 | CCCCC[C@H](O)/C=C/C=C\C/C=C\C=C\[C@@H](O)CCCC(=O)O [5(S),15(S)-DiHETE] | 486600 RLU | 14.86% |  | 
22 | CC/C=C\C/C=C\C/C=C\C/C=C\C=C\[C@@H](O)CCCC(=O)O [5(S)-HEPE] | 429120 RLU | 10.58% |  | 
23 | CCCCC/C=C\C/C=C\C/C=C\C=C\[C@@H]1CCCC(=O)O1 [5(S)-HETE lactone] | 288400 RLU | 0.12% |  | 
24 | CCCCC/C=C\C/C=C\C/C=C\C=C\[C@@H](O)CCCC(=O)O [5(S)-HETE] | 430800 RLU | 10.71% |  | 
25 | CCCCC/C=C\C/C=C\C/C=C\C=C\[C@H](CCCC(=O)O)OO [5(S)-HpETE] | 225600 RLU | −4.55% |  | 
26 | CCCCC/C=C\C/C=C\C/C=C\CC#CCCCC(=O)O [5,6-dehydro Arachidonic Acid] | 210160 RLU | −8.68% |  | 
27 | CCCCC/C=C\C/C=C\C/C=C\C=C\C(=O)CCCC(=O)O [5-OxoETE] | 261280 RLU | −1.90% |  | 
28 | CCCCC/C=C\C[C@@H]1[C@H](/C=C/C(O)CCCC(=O)O)[C@@H](O)C[C@H]1O (stereo partly drawn) [5-iPF2α-VI] | 293200 RLU | 0.80% |  | 
29 | C[C@]12CCC(=O)C[C@@H]1CC[C@@H]1[C@@H]2CC[C@]2(C)C(=O)CC[C@@H]12 [5a-androstanedione] |  |  | 181840 RLU | 0.37%
30 | CC(=O)OC1=CC[C@H]2[C@@H]3CC[C@H]4CC=CC[C@]4(C)[C@H]3CC[C@]12C [5alpha-Androsta-2,16-dien-17-yl acetate] |  |  | 197640 RLU | 0.65%
31 | C[C@]12CCC(=O)C[C@@H]1CC[C@@H]1[C@@H]2C(=O)C[C@]2(C)C(=O)CC[C@@H]12 [5alpha-Androstane-3,11,17-trione] |  |  | 228280 RLU | 1.18%
32 | C[C@]12CCC(=O)C[C@@H]1CC[C@@H]1[C@@H]2[C@@H](O)C[C@@]2(C)[C@H]1CC[C@]2(O)C(=O)CO [5alpha-dihydrocortisol] |  |  | 139720 RLU | −0.36%
33 | CCCCC[C@H](O)/C=C/C=C\C=C\C=C\[C@H](O)[C@@H](O)CCCC(=O)O [6(S)-Lipoxin A4] | 383000 RLU | 7.90% |  | 
34 | CCCCCC(=O)CC[C@@H]1[C@@H](CC(=O)CCCCC(=O)O)[C@@H](O)C[C@H]1O [6,15-diketo-13,14-dihydro Prostaglandin F1α] | 262680 RLU | −1.61% |  | 
35 | CCCCC/C=C\C/C=C\C[C@H]1O[C@H]1C/C=C\CCCC(=O)NCCO [8(9)-EET Ethanolamide] | 446000 RLU | 9.14% |  | 
36 | CCCCC[C@H](O)/C=C/C=C\C=C\[C@@H](O)C/C=C\CCCC(=O)O [8(S),15(S)-DiHETE] | 410440 RLU | 9.19% |  | 
37 | CCCCC/C=C\C/C=C\C=C\[C@@H](O)CCCCCCC(=O)O [8(S)-HETrE] | 412960 RLU | 9.38% |  | 
38 | CC/C=C\C[C@H](O)/C=C/[C@@H]1[C@H](C/C=C\CCCC(=O)O)[C@@H](O)C[C@H]1O [8-iso Prostaglandin F3α] | 361040 RLU | 6.16% |  | 
